For orientation: IC50 means the midpoint of a concentration-inhibition curve.

In the test the target is human-cGAS (h-cGAS) (Homo sapiens, UniProt Q8N884). Nature of the test: hcGAS Kinase-Glo Assay. The conditions noted are these: 40 nM h-cGAS, 100 μM ATP, 100 μM GTP, 25 nM dsDNA, 3 h incubation, read-out: hcGAS potency IC50. Type of test: biochemical. The method, boiled down: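 IC50 values come from a luminescence-based Kinase-Glo measurement on human cGAS. Conditions follow the Lama et al. 2019 method with minor modifications.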

Structures are written as SMILES.

Chain of human-cGAS (h-cGAS) (Q8N884 whole entry): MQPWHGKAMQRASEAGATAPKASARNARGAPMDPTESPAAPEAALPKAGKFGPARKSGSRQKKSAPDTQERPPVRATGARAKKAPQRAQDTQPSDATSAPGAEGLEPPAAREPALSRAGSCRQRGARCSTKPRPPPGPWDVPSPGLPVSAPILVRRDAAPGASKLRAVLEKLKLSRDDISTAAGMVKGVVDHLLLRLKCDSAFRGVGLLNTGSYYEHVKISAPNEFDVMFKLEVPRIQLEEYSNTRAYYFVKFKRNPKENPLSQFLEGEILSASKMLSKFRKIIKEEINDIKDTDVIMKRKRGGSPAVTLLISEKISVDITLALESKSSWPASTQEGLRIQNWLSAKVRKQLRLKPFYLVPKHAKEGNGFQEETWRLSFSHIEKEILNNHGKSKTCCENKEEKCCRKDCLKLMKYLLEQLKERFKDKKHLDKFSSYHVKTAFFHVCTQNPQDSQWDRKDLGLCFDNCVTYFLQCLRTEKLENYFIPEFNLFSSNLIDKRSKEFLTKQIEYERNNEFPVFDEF

Regarding `CSc1nnc(NC(=O)c2cc(-c3ccc(Cl)cc3)no2)s1` [Compound 50, 3-(4-chlorophenyl)-N-(5-(methylthio)-1,3,4-thiadiazol-2-yl)isoxazole-5-carboxamide], the IC50 lay in the range of 500 to 1000 nM.

Regarding `CONC(=O)c1cc(C(=O)Nc2nnc(-c3ccccc3Cl)s2)on1` [Compound 91, N5-(5-(2-chlorophenyl)-1,3,4-thiadiazol-2-yl)-N3-methoxyisoxazole-3,5-dicarboxamide], the IC50 is < 100 nM.

Consider `CC1(c2cc(C(=O)Nc3nnc(-c4ccccc4Cl)s3)on2)COC1` [Compound 41, N-(5-(2-chlorophenyl)-1,3,4-thiadiazol-2-yl)-3-(3-methyloxetan-3-yl)isoxazole-5-carboxamide], for which the concentration for half-maximal inhibition (IC50) lay in the range of 100 to 500 nM.

As to `CSc1nnc(NC(=O)c2cc(-c3cccc4c3CCC4)no2)s1` [Compound 68, 3-(2,3-dihydro-1H-inden-4-yl)-N-(5-(methylthio)-1,3,4-thiadiazol-2-yl)isoxazole-5-carboxamide], the IC50 was in the range of 500 to 1000 nM.

Take `O=C(Nc1nnc(-c2ccccc2)s1)c1onc2ccccc12` [Compound 19, N-(5-phenyl-1,3,4-thiadiazol-2-yl)benzo[c]isoxazole-3-carboxamide]: the IC50 is ≥ 1000 nM.

Turning to `CSc1nnc(NC(=O)c2nnc(N3CCCC[C@@H]3c3ccccc3)o2)s1` (single isomer, unassigned) [Compound 121*], the IC50 lay in the range of 500 to 1000 nM.

In the case of `O=C(Nc1nnc(-c2ccccc2Cl)s1)c1ccc(O)c(=O)o1` [Compound 64, N-(5-(2-chlorophenyl)-1,3,4-thiadiazol-2-yl)-3-hydroxy-2-oxo-2H-pyran-6-carboxamide], the 50% inhibitory concentration (IC50) was < 100 nM.

Consider `CSc1nnc(NC(=O)c2onc3cc(C)ccc23)s1` [Compound 221, 6-methyl-N-[5-(methylsulfanyl)-1,3,4-thiadiazol-2-yl]-2,1-benzoxazole-3-carboxamide], for which the IC50 is 100 to 500 nM.

Turning to `CSc1nnc(NC(=O)c2noc(C3CCCCC3)n2)s1` [Compound 263, 5-cyclohexyl-N-(5-(methylthio)-1,3,4-thiadiazol-2-yl)-1,2,4-oxadiazole-3-carboxamide], the IC50 is ≥ 1000 nM.

In the case of `CSc1nnc(NC(=O)c2nnc(N3CCC3c3ccccc3)o2)s1` (stereo not drawn) [Compound 74, N-(5-(methylthio)-1,3,4-thiadiazol-2-yl)-5-(2-phenylazetidin-1-yl)-1,3,4-oxadiazole-2-carboxamide], the IC50 was ≥ 1000 nM.

As to `CSc1nnc(NC(=O)c2cc(Cc3ccccc3)no2)s1` [Compound 233, 3-benzyl-N-[5-(methylsulfanyl)-1,3,4-thiadiazol-2-yl]-1,2-oxazole-5-carboxamide], the IC50 was in the range of 500 to 1000 nM.

In the case of `O=C(Nc1nnc(-c2ccccc2Cl)s1)c1onc2c1ccc1cccnc12` [Compound 7, N-(5-(2-chlorophenyl)-1,3,4-thiadiazol-2-yl)isoxazolo[4,3-h]quinoline-3-carboxamide], the half-inhibitory concentration (IC50) is < 100 nM.

`O=C(Nc1nnc(-c2ccccc2Br)s1)c1onc2ccccc12` [Compound 144, N-[5-(2-bromophenyl)-1,3,4-thiadiazol-2-yl]-2,1-benzoxazole-3-carboxamide]: the IC50 lay in the range of 100 to 500 nM.

For the compound `CSc1nnc(NC(=O)c2onc3c2CN(C(=O)OC(C)(C)C)CC3)s1` [Compound 43, tert-butyl 3-((5-(methylthio)-1,3,4-thiadiazol-2-yl)carbamoyl)-6,7-dihydroisoxazolo[4,3-c]pyridine-5(4H)-carboxylate], the IC50 was ≥ 1000 nM.

As to `CSc1nnc(NC(=O)c2cc(-c3cccc(F)c3F)no2)s1` [Compound 151, 3-(2,3-Difluorophenyl)-N-(5-(methylthio)-1,3,4-thiadiazol-2-yl)isoxazole-5-carboxamide], the IC50 lay in the range of 500 to 1000 nM.

`CSc1nnc(NC(=O)c2nnc(N3CCCCC3c3ccccc3)o2)s1` (stereo not drawn) [Compound 149, N-(5-(methylthio)-1,3,4-thiadiazol-2-yl)-5-(2-phenylpiperidin-1-yl)-1,3,4-oxadiazole-2-carboxamide]: the IC50 lay in the range of 500 to 1000 nM.

Regarding `CSc1nnc(NC(=O)c2cc(-c3ccc(=O)[nH]c3)cc(=O)o2)s1` [Compound 272, N-(5-(methylthio)-1,3,4-thiadiazol-2-yl)-2-oxo-4-(6-oxo-1,6-dihydropyridin-3-yl)-2H-pyran-6-carboxamide], the IC50 was in the range of 500 to 1000 nM.

With `Cc1ccnc(-c2cc(C(=O)Nc3nnc(-c4ccccc4Cl)s3)on2)n1` [Compound 157, N-(5-(2-Chlorophenyl)-1,3,4-thiadiazol-2-yl)-3-(4-methylpyrimidin-2-yl)isoxazole-5-carboxamide], the half-maximal inhibitory concentration (IC50) was in the range of 100 to 500 nM.

On to `O=C(Nc1ccccc1)c1cc(C(=O)Nc2nnc(-c3ccccc3Cl)s2)on1` [Compound 92, N5-(5-(2-chlorophenyl)-1,3,4-thiadiazol-2-yl)-N3-phenylisoxazole-3,5-dicarboxamide], for which the IC50 is 100 to 500 nM.

For `CSc1nnc(NC(=O)c2cc(-c3cncc4ccccc34)cc(=O)o2)s1` [Compound 256, 4-(4-isoquinolyl)-N-(5-methylsulfanyl-1,3,4-thiadiazol-2-yl)-6-oxo-pyran-2-carboxamide], the IC50 lay within 500 to 1000 nM.

Take `CSc1nnc(NC(=O)c2ccc(-c3ccccc3)c(=O)o2)s1` [Compound 225, N-[5-(methylsulfanyl)-1,3,4-thiadiazol-2-yl]-6-oxo-5-phenylpyran-2-carboxamide]: the IC50 is ≥ 1000 nM.

As to `O=C(Nc1nnc(-c2ncccn2)s1)c1onc2ccccc12` [Compound 148, N-(5-(pyrimidin-2-yl)-1,3,4-thiadiazol-2-yl)benzo[c]isoxazole-3-carboxamide], the IC50 is ≥ 1000 nM.

Take `COc1cccc(Cc2ccc3noc(C(=O)Nc4nnc(SC)s4)c3c2)c1` [Compound 161, 5-(3-methoxybenzyl)-N-(5-(methylthio)-1,3,4-thiadiazol-2-yl)benzo[c]isoxazole-3-carboxamide]: the IC50 lay within 500 to 1000 nM.

Consider `CSc1nnc(NC(=O)c2onc3ccc(Cc4c[nH]c(=O)c(O)c4)cc23)s1` [Compound 189, 5-((5-Hydroxy-6-oxo-1,6-dihydropyridin-3-yl)methyl)-N-(5-(methylthio)-1,3,4-thiadiazol-2-yl)benzo[c]isoxazole-3-carboxamide], for which the IC50 was ≥ 1000 nM.

Regarding `CSc1nnc(NC(=O)c2cc(-c3ccccc3-c3cccc(CC(=O)O)c3)cc(=O)o2)s1` [Compound 177, 2-(2′-(6-((5-(methylthio)-1,3,4-thiadiazol-2-yl)carbamoyl)-2-oxo-2H-pyran-4-yl)-[1,1′-biphenyl]-3-yl)acetic acid], the IC50 fell in the range of 500 to 1000 nM.

For the compound `CSc1nnc(NC(=O)c2onc3ccc(Cc4ccc5c(c4)OCO5)cc23)s1` [Compound 185, 5-(Benzo[d][1,3]dioxol-5-ylmethyl)-N-(5-(methylthio)-1,3,4-thiadiazol-2-yl)benzo[c]isoxazole-3-carboxamide], the IC50 was ≥ 1000 nM.

As for `COc1ccc(Cc2ccc3noc(C(=O)Nc4nnc(SC)s4)c3c2)cc1O` [Compound 187, 5-(3-hydroxy-4-methoxybenzyl)-N-(5-(methylthio)-1,3,4-thiadiazol-2-yl)benzo[c]isoxazole-3-carboxamide], the concentration for half-maximal inhibition (IC50) is ≥ 1000 nM.

As to `CSc1nnc(NC(=O)c2cc(-c3ccnc4ccccc34)cc(=O)o2)s1` [Compound 247, N-(5-methylsulfanyl-1,3,4-thiadiazol-2-yl)-6-oxo-4-(4-quinolyl)pyran-2-carboxamide], the IC50 was in the range of 500 to 1000 nM.

Consider `CCSc1nnc(NC(=O)c2onc3ccccc23)s1` [Compound 70, N-(5-(ethylthio)-1,3,4-thiadiazol-2-yl)benzo[c]isoxazole-3-carboxamide], for which the IC50 was ≥ 1000 nM.

On to `CSc1nnc(NC(=O)c2cc(-c3cccc4cccnc34)cc(=O)o2)s1` [Compound 246, N-(5-methylsulfanyl-1,3,4-thiadiazol-2-yl)-6-oxo-4-(8-quinolyl)pyran-2-carboxamide], for which the IC50 lay in the range of 100 to 500 nM.

With `CSc1nnc(NC(=O)c2cc(-c3ccccc3)ncn2)s1` [Compound 201, N-(5-(methylthio)-1,3,4-thiadiazol-2-yl)-6-phenylpyrimidine-4-carboxamide], the half-inhibitory concentration (IC50) is ≥ 1000 nM.

Turning to `CSc1nnc(NC(=O)c2onc3ccc(Cn4cc(C(=O)O)c(=O)c5ccccc54)cc23)s1` [Compound 184, 1-((3-((5-(Methylthio)-1,3,4-thiadiazol-2-yl)carbamoyl)benzo[c]isoxazol-5-yl)methyl)-4-oxo-1,4-dihydroquinoline-3-carboxylic acid], the half-inhibitory concentration (IC50) was ≥ 1000 nM.

Take `CSc1nnc(NC(=O)c2cc(-c3ccc4cccnc4c3)cc(=O)o2)s1` [Compound 270, N-(5-(methylthio)-1,3,4-thiadiazol-2-yl)-2-oxo-4-(quinolin-7-yl)-2H-pyran-6-carboxamide]: the IC50 was 100 to 500 nM.

On to `CSc1nnc(NC(=O)c2cc(-c3cccc4ccccc34)cc(=O)o2)s1` [Compound 253, N-(5-methylsulfanyl-1,3,4-thiadiazol-2-yl)-4-(1-naphthyl)-6-oxo-pyran-2-carboxamide], for which the IC50 was 100 to 500 nM.

For the compound `CSc1nnc(NC(=O)c2cc(-c3ccns3)no2)s1` [Compound 140, N-[5-(methylsulfanyl)-1,3,4-thiadiazol-2-yl]-3-(1,2-thiazol-5-yl)-1,2-oxazole-5-carboxamide], the IC50 is ≥ 1000 nM.

`CSc1nnc(NC(=O)c2nnc(N3CCCC(C(=O)O)C3)o2)s1` (stereo not drawn) [Compound 110, 1-(5-{[5-(methylsulfanyl)-1,3,4-thiadiazol-2-yl]carbamoyl}-1,3,4-oxadiazol-2-yl)piperidine-3-carboxylic acid]: the IC50 lay in the range of 500 to 1000 nM.

For the compound `O=C(Nc1ccccc1Cl)c1nnn2ccc(=O)[nH]c12` [Compound 97, N-(2-chlorophenyl)-5-oxo-4H-[1,2,3]triazolo[1,5-a]pyrimidine-3-carboxamide], the 50% inhibitory concentration (IC50) is ≥ 1000 nM.

For `COc1ccc(-c2cc(C(=O)Nc3nnc(SC)s3)on2)cc1` [Compound 210], the IC50 is ≥ 1000 nM.

`COc1cccc(-c2cc(C(=O)Nc3nnc(SC)s3)on2)c1` [Compound 212, 3-(3-methoxyphenyl)-N-[5-(methylsulfanyl)-1,3,4-thiadiazol-2-yl]-1,2-oxazole-5-carboxamide]: the IC50 was ≥ 1000 nM.

The values above are taken from patent US20250002487A1, “HETEROCYCLIC COMPOUNDS AND USES THEREOF” (Ventus Therapeutics U.S., Inc., priority 2021, published 2025).
